Results reported in the NIST ThermoML archive (doi:10.1021/acs.jced.6b00210).

Assay: xn = mol fraction of the nth substance listed
Conditions: 100 kPa, Liquid; for viscosity: Concentric cylinders viscometry; for mass density: Vibrating tube method

Nc1ccccc1 [aniline] + CCC(C)O
Conditions | mass density [kg/m3] | viscosity [mPa·s]
293.15 K, x1 = 0.0813 | 825 | 3.32
293.15 K, x1 = 0.16 | 842.5 | 3.07
293.15 K, x1 = 0.24 | 860.1 | 2.88
293.15 K, x1 = 0.3502 | 884.2 | 2.71
293.15 K, x1 = 0.44 | 903.7 | 2.66
293.15 K, x1 = 0.5601 | 929.6 | 2.72
293.15 K, x1 = 0.65 | 948.8 | 2.81
293.15 K, x1 = 0.74 | 967.8 | 3
293.15 K, x1 = 0.8499 | 990.8 | 3.4
293.15 K, x1 = 0.94 | 1009.4 | 3.89
293.15 K, x1 = 1 | 1021.7 | 4.37
298.15 K, x1 = 0.0813 | 820.7 | 2.77
298.15 K, x1 = 0.16 | 838.1 | 2.55
298.15 K, x1 = 0.24 | 855.7 | 2.39
298.15 K, x1 = 0.3502 | 879.7 | 2.25
298.15 K, x1 = 0.44 | 899.2 | 2.21
298.15 K, x1 = 0.5601 | 924.9 | 2.24
298.15 K, x1 = 0.65 | 944.1 | 2.33
298.15 K, x1 = 0.74 | 963.1 | 2.52
298.15 K, x1 = 0.8499 | 986.2 | 2.92
298.15 K, x1 = 0.94 | 1004.9 | 3.38
298.15 K, x1 = 1 | 1017.4 | 3.8
303.15 K, x1 = 0.0813 | 816.3 | 2.3
303.15 K, x1 = 0.16 | 833.6 | 2.12
303.15 K, x1 = 0.24 | 851.1 | 1.97
303.15 K, x1 = 0.3502 | 875.1 | 1.83
303.15 K, x1 = 0.44 | 894.5 | 1.78
303.15 K, x1 = 0.5601 | 920.4 | 1.77
303.15 K, x1 = 0.65 | 939.6 | 1.83
303.15 K, x1 = 0.74 | 958.6 | 1.97
303.15 K, x1 = 0.8499 | 981.8 | 2.32
303.15 K, x1 = 0.94 | 1000.6 | 2.77
303.15 K, x1 = 1 | 1013.2 | 3.13
308.15 K, x1 = 0.0813 | 811.9 | 1.94
308.15 K, x1 = 0.16 | 829.1 | 1.81
308.15 K, x1 = 0.24 | 846.6 | 1.69
308.15 K, x1 = 0.3502 | 870.5 | 1.56
308.15 K, x1 = 0.44 | 890 | 1.51
308.15 K, x1 = 0.5601 | 915.8 | 1.5
308.15 K, x1 = 0.65 | 935 | 1.55
308.15 K, x1 = 0.74 | 954.2 | 1.69
308.15 K, x1 = 0.8499 | 977.4 | 2.01
308.15 K, x1 = 0.94 | 996.4 | 2.43
308.15 K, x1 = 1 | 1009 | 2.75
313.15 K, x1 = 0.0813 | 807.5 | 1.65
313.15 K, x1 = 0.16 | 824.7 | 1.52
313.15 K, x1 = 0.24 | 842.1 | 1.416
313.15 K, x1 = 0.3502 | 865.9 | 1.33
313.15 K, x1 = 0.44 | 885.3 | 1.29
313.15 K, x1 = 0.5601 | 911.2 | 1.3
313.15 K, x1 = 0.65 | 930.5 | 1.35
313.15 K, x1 = 0.74 | 949.6 | 1.49
313.15 K, x1 = 0.8499 | 973 | 1.78
313.15 K, x1 = 0.94 | 992 | 2.14
313.15 K, x1 = 1 | 1004.7 | 2.43
318.15 K, x1 = 0.0813 | 802.9 | 1.42
318.15 K, x1 = 0.16 | 820 | 1.31
318.15 K, x1 = 0.24 | 837.3 | 1.21
318.15 K, x1 = 0.3502 | 861.1 | 1.13
318.15 K, x1 = 0.44 | 880.5 | 1.11
318.15 K, x1 = 0.5601 | 906.4 | 1.13
318.15 K, x1 = 0.65 | 925.7 | 1.19
318.15 K, x1 = 0.74 | 945 | 1.31
318.15 K, x1 = 0.8499 | 968.5 | 1.58
318.15 K, x1 = 0.94 | 987.6 | 1.9
318.15 K, x1 = 1 | 1000.4 | 2.14
323.15 K, x1 = 0.0813 | 798.2 | 1.24
323.15 K, x1 = 0.16 | 815.2 | 1.15
323.15 K, x1 = 0.24 | 832.5 | 1.07
323.15 K, x1 = 0.3502 | 856.2 | 1
323.15 K, x1 = 0.44 | 875.5 | 0.99
323.15 K, x1 = 0.5601 | 901.3 | 1.014
323.15 K, x1 = 0.65 | 920.7 | 1.075
323.15 K, x1 = 0.74 | 940 | 1.189
323.15 K, x1 = 0.8499 | 963.5 | 1.46
323.15 K, x1 = 0.94 | 982.7 | 1.75
323.15 K, x1 = 1 | 995.5 | 1.96

Nc1ccccc1 [aniline] + CCCC(C)O
Conditions | mass density [kg/m3] | viscosity [mPa·s]
293.15 K, x1 = 0.0811 | 824.5 | 3.55
293.15 K, x1 = 0.1599 | 839.5 | 3.23
293.15 K, x1 = 0.2399 | 855 | 3
293.15 K, x1 = 0.35 | 877 | 2.8
293.15 K, x1 = 0.44 | 895.5 | 2.71
293.15 K, x1 = 0.56 | 920.8 | 2.67
293.15 K, x1 = 0.65 | 940.4 | 2.72
293.15 K, x1 = 0.74 | 960.5 | 2.86
293.15 K, x1 = 0.8499 | 985.8 | 3.26
293.15 K, x1 = 0.9363 | 1006.3 | 3.79
293.15 K, x1 = 1 | 1021.7 | 4.37
298.15 K, x1 = 0.0811 | 820.3 | 3.03
298.15 K, x1 = 0.1599 | 835.3 | 2.74
298.15 K, x1 = 0.2399 | 850.8 | 2.53
298.15 K, x1 = 0.35 | 872.7 | 2.35
298.15 K, x1 = 0.44 | 891.1 | 2.28
298.15 K, x1 = 0.56 | 916.4 | 2.28
298.15 K, x1 = 0.65 | 935.9 | 2.34
298.15 K, x1 = 0.74 | 956 | 2.49
298.15 K, x1 = 0.8499 | 981.4 | 2.87
298.15 K, x1 = 0.9363 | 1001.9 | 3.31
298.15 K, x1 = 1 | 1017.4 | 3.8
303.15 K, x1 = 0.0811 | 816.1 | 2.61
303.15 K, x1 = 0.1599 | 831 | 2.34
303.15 K, x1 = 0.2399 | 846.5 | 2.12
303.15 K, x1 = 0.35 | 868.3 | 1.93
303.15 K, x1 = 0.44 | 886.7 | 1.86
303.15 K, x1 = 0.56 | 912 | 1.83
303.15 K, x1 = 0.65 | 931.6 | 1.87
303.15 K, x1 = 0.74 | 951.7 | 2.01
303.15 K, x1 = 0.8499 | 977 | 2.36
303.15 K, x1 = 0.9363 | 997.6 | 2.74
303.15 K, x1 = 1 | 1013.2 | 3.13
308.15 K, x1 = 0.0811 | 811.8 | 2.22
308.15 K, x1 = 0.1599 | 826.7 | 1.98
308.15 K, x1 = 0.2399 | 842.1 | 1.8
308.15 K, x1 = 0.35 | 863.9 | 1.65
308.15 K, x1 = 0.44 | 882.3 | 1.58
308.15 K, x1 = 0.56 | 907.6 | 1.562
308.15 K, x1 = 0.65 | 927.1 | 1.64
308.15 K, x1 = 0.74 | 947.2 | 1.78
308.15 K, x1 = 0.8499 | 972.7 | 2.09
308.15 K, x1 = 0.9363 | 993.3 | 2.44
308.15 K, x1 = 1 | 1009 | 2.75
313.15 K, x1 = 0.0811 | 807.5 | 1.84
313.15 K, x1 = 0.1599 | 822.3 | 1.64
313.15 K, x1 = 0.2399 | 837.6 | 1.5
313.15 K, x1 = 0.35 | 859.4 | 1.39
313.15 K, x1 = 0.44 | 877.8 | 1.359
313.15 K, x1 = 0.56 | 903 | 1.38
313.15 K, x1 = 0.65 | 922.6 | 1.46
313.15 K, x1 = 0.74 | 942.8 | 1.61
313.15 K, x1 = 0.8499 | 968.2 | 1.89
313.15 K, x1 = 0.9363 | 989 | 2.18
313.15 K, x1 = 1 | 1004.7 | 2.43
318.15 K, x1 = 0.0811 | 803.1 | 1.48
318.15 K, x1 = 0.1599 | 817.9 | 1.34
318.15 K, x1 = 0.2399 | 833.2 | 1.257
318.15 K, x1 = 0.35 | 854.9 | 1.18
318.15 K, x1 = 0.44 | 873.3 | 1.16
318.15 K, x1 = 0.56 | 898.6 | 1.21
318.15 K, x1 = 0.65 | 918.1 | 1.29
318.15 K, x1 = 0.74 | 938.3 | 1.44
318.15 K, x1 = 0.8499 | 963.8 | 1.7
318.15 K, x1 = 0.9363 | 984.6 | 1.93
318.15 K, x1 = 1 | 1000.4 | 2.14
323.15 K, x1 = 0.0811 | 798.7 | 1.19
323.15 K, x1 = 0.1599 | 813.3 | 1.11
323.15 K, x1 = 0.2399 | 828.6 | 1.06
323.15 K, x1 = 0.35 | 850.2 | 1.03
323.15 K, x1 = 0.44 | 868.5 | 1.03
323.15 K, x1 = 0.56 | 893.7 | 1.08
323.15 K, x1 = 0.65 | 913.3 | 1.17
323.15 K, x1 = 0.74 | 933.4 | 1.31
323.15 K, x1 = 0.8499 | 958.9 | 1.54
323.15 K, x1 = 0.9363 | 979.7 | 1.77
323.15 K, x1 = 1 | 995.5 | 1.96
